Literature values in patent publication US8735374B2, “Oral mucoadhesive dosage form” (Intelgenx Corp., priority 2009, dated 2014).
Several values for one entry are separate records, joined by “and”; a condition that tells them apart may be missing. Equal entries are not always repeated.

Settings: oral administration; first pass hepatic metabolism, high lipid solubility

CCCCCc1cc(O)c2c(c1)OC(C)(C)[C@@H]1CCC(C)=C[C@@H]21 [THC, Δ^9-tetrahydrocannabinol]
portion of an administered dose that reaches systemic circulation: 10 to 20% and 10-20%
